# pIC50: −log10 of the molar value.
# Target: T1, human M1 receptor (Homo sapiens, UniProt P11229)
# T1 sequence (P11229 1-460): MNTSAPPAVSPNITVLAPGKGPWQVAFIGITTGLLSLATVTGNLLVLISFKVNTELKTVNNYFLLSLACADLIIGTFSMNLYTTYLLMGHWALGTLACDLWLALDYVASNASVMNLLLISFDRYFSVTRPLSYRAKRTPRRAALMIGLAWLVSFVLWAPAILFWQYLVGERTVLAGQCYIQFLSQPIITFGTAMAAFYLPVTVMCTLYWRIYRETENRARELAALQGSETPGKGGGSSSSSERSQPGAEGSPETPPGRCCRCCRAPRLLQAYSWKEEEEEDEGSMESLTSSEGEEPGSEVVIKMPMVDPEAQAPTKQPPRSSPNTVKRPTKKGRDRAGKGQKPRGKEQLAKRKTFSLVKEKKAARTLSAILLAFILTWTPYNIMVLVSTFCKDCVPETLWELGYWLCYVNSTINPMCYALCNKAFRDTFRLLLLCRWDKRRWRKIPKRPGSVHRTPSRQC
# Test: In vitro functional assay of muscarinic acetylcholine receptor activity (aequorin calcium flux, reversal of EC80 acetylcholine response)
# Format: cell-based
# Conditions: CHO-K1 cells stably expressing human M1 receptor with aequorin; acetylcholine at EC80; calcium flux (luminescence); read-out: M1 IC50
# Summary of the method: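 Antagonist mode: compound (final 0.1% DMSO) and coelenterazine-loaded M1/aequorin CHO-K1 cells incubated 30 min in the dark before EC80 acetylcholine addition. Calcium flash integrated as 40 s luminescence AUC; IC50 derived from dose-response curves.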
row,Structure (SMILES),pIC50
1,"Cc1noc(C)c1C(F)(F)CCC(=O)N1CC2CCC(C1)N2c1ccc(C#N)cn1 [Example 126, 6-(3-(4-(3,5-dimethylisoxazol-4-yl)-4,4-difluorobutanoyl)-3,8-diazabicyclo[3.2.1]octan-8-yl)nicotinonitrile]",> 8.00
2,"CC(c1ccccc1)S(=O)(=O)CCC(=O)N1CC2CCC(C1)N2c1ccc(C#N)cn1 (racemic) [Example 174, 6-(3-(3-((1-phenylethyl)sulfonyl)propanoyl)-3,8-diazabicyclo[3.2.1]octan-8-yl)nicotinonitrile]",< 6.00
3,"COc1cc(C2(OCC(=O)N3CC4CCC(C3)N4c3ccc(C#N)cn3)CC2)ccc1F [Example 224, 6-(3-(2-(1-(4-fluoro-3-methoxyphenyl)cyclopropoxy)acetyl)-3,8-diazabicyclo[3.2.1]octan-8-yl)nicotinonitrile]",7.00 to 8.00
4,"Cc1csc(C2(OCC(=O)N3CC4CCC(C3)N4c3ccc(C#N)cn3)CCC2)n1 [Example 266, 6-(3-(2-(1-(4-methylthiazol-2-yl)cyclobutoxy)acetyl)-3,8-diazabicyclo[3.2.1]octan-8-yl)nicotinonitrile]",6.00 to 7.00
5,"COc1ccc(C2(OCC(=O)N3CC4CCC(C3)N4c3ccc(C#N)cn3)CC2)cc1F [Example 222, 6-(3-(2-(1-(3-fluoro-4-methoxyphenyl)cyclopropoxy)acetyl)-3,8-diazabicyclo[3.2.1]octan-8-yl)nicotinonitrile]",5.00 to 6.00
6,"N#Cc1ccc(N2[C@@H]3CC[C@H]2CN(C(=O)CCNC2(c4cccc5ncccc45)CC2)C3)nc1 [Example 27, 6-(3-(3-((1-(quinolin-5-yl)cyclopropyl)amino)propanoyl)-3,8-diazabicyclo[3.2.1]octan-8-yl)nicotinonitrile]",> 8.00
7,"CC(c1ccc(F)c(F)c1)N1CC(C(=O)N2CC3CCC(C2)N3c2ccc(C#N)cn2)C1 (racemic) [Example 137, 6-(3-(1-(1-(3,4-difluorophenyl)ethyl)azetidine-3-carbonyl)-3,8-diazabicyclo[3.2.1]octan-8-yl)nicotinonitrile]",6.00 to 7.00
8,"CC(NCCC(=O)N1CC2CCC(C1)N2c1ccc(C#N)cn1)c1cccc2ncccc12 (racemic) [Example 48, 6-(3-(3-((1-(quinolin-5-yl)ethyl)amino)propanoyl)-3,8-diazabicyclo[3.2.1]octan-8-yl)nicotinonitrile]",> 8.00
9,"N#Cc1ccc(N2C3CCC2CN(C(=O)CNC2(c4ccccc4F)CC2)C3)nc1 [Example 61, 6-(3-((1-(2-fluorophenyl)cyclopropyl)glycyl)-3,8-diazabicyclo[3.2.1]octan-8-yl)nicotinonitrile]",6.00 to 7.00
10,"CC(C)(NCCC(=O)N1C[C@H]2CC[C@@H](C1)N2c1ccc(C#N)cn1)c1cccc2ncccc12 [Example 25, 6-(3-(3-((2-(quinolin-5-yl)propan-2-yl)amino)propanoyl)-3,8-diazabicyclo[3.2.1]octan-8-yl)nicotinonitrile]",> 8.00
11,"N#Cc1ccc(N2C3CCC2CN(C(=O)COC2(c4ccc(F)c(F)c4)COC2)C3)nc1 [Example 241, (3-(2-((3-(3,4-difluorophenyl)oxetan-3-yl)oxy)acetyl)-3,8-diazabicyclo[3.2.1]octan-8-yl)nicotinonitrile]",5.00 to 6.00
12,"COc1ncccc1C(F)(F)/C=C/C(=O)N1C[C@H]2CC[C@@H](C1)N2c1ccc(C#N)cn1 [Example 141, 6-(3-((E)-4,4-difluoro-4-(2-methoxypyridin-3-yl)but-2-enoyl)-3,8-diazabicyclo[3.2.1]octan-8-yl)nicotinonitrile]",> 8.00
13,"CC(c1ccc(F)cc1)S(=O)(=O)CC(=O)N1CC2CCC(C1)N2c1ccc(C#N)cn1 (racemic) [Example 173, 6-(3-(2-((1-(4-fluorophenyl)ethyl)sulfonyl)acetyl)-3,8-diazabicyclo[3.2.1]octan-8-yl)nicotinonitrile]",5.00 to 6.00
14,"COc1cncc(C(F)(F)/C=C/C(=O)N2CC3CCC(C2)N3c2ccc(C#N)cn2)c1 [Example 142, 6-(3-((E)-4,4-difluoro-4-(5-methoxypyridin-3-yl)but-2-enoyl)-3,8-diazabicyclo[3.2.1]octan-8-yl)nicotinonitrile]",> 8.00
15,"CC(C)(OCC(=O)N1CC2CCC(C1)N2c1ccc(C#N)cn1)c1cccc2nccn12 (racemic) [Example 204, 6-(3-(2-((2-(imidazo[1,2-a]pyridin-5-yl)propan-2-yl)oxy)acetyl)-3,8-diazabicyclo[3.2.1]octan-8-yl)nicotinonitrile]",6.00 to 7.00
16,"N#Cc1ccc(N2C3CCC2CN(C(=O)CN2CC(c4ccc(F)cc4)C2)C3)nc1 [Example 105, 6-(3-(2-(3-(4-fluorophenyl)azetidin-1-yl)acetyl)-3,8-diazabicyclo[3.2.1]octan-8-yl)nicotinonitrile]",< 6.00

row,Structure (SMILES),pIC50
1,"N#Cc1ccc(N2C3CCC2CN(C(=O)COC2(c4ccc(F)cn4)CCC2)C3)nc1 [Example 249, 6-(3-(2-(1-(5-fluoropyridin-2-yl)cyclobutoxy)acetyl)-3,8-diazabicyclo[3.2.1]octan-8-yl)nicotinonitrile]",7.00 to 8.00
2,"N#Cc1ccc(N2C3CCC2CN(C(=O)COC2(c4ccccc4Br)CC2)C3)nc1 [Example 181, 6-(3-(2-(1-(2-bromophenyl)cyclopropoxy)acetyl)-3,8-diazabicyclo[3.2.1]octan-8-yl)nicotinonitrile]",7.00 to 8.00
3,"N#Cc1ccc(N2C3CCC2CN(C(=O)COCC2(c4ccc(F)cc4)CC2)C3)nc1 [Example 188, 6-(3-(2-((1-(4-fluorophenyl)cyclopropyl)methoxy)acetyl)-3,8-diazabicyclo[3.2.1]octan-8-yl)nicotinonitrile]",5.00 to 6.00
4,"N#Cc1cc(N2C3CCC2CN(C(=O)CNC2(c4ccc(F)cc4F)CC2)C3)ccn1 [Example 84, 4-(3-((1-(2,4-difluorophenyl)cyclopropyl)glycyl)-3,8-diazabicyclo[3.2.1]octan-8-yl)picolinonitrile]",6.00 to 7.00
5,"[2H]C([2H])([2H])Oc1cc(C(F)(F)/C=C/C(=O)N2CC3CCC(C2)N3c2ccc(C#N)cn2)ccn1 [Example 149, 6-(3-((E)-4,4-difluoro-4-(2-(methoxy-d3)pyridin-4-yl)but-2-enoyl)-3,8-diazabicyclo[3.2.1]octan-8-yl)nicotinonitrile]",> 8.00
6,"COc1cc(C2(OCC(=O)N3CC4CCC(C3)N4c3ccc(C#N)cn3)CCCC2)ccn1 [Example 267, 6-(3-(2-((1-(2-methoxypyridin-4-yl)cyclopentyl)oxy)acetyl)-3,8-diazabicyclo[3.2.1]octan-8-yl)nicotinonitrile]",7.00 to 8.00
7,"COc1ccc(Br)c(C2(OCC(=O)N3CC4CCC(C3)N4c3ccc(C#N)cn3)CC2)c1 [Example 226, 6-(3-(2-(1-(2-bromo-5-methoxyphenyl)cyclopropoxy)acetyl)-3,8-diazabicyclo[3.2.1]octan-8-yl)nicotinonitrile]",> 8.00
8,"COc1cncc(C(F)(F)CCC(=O)N2CC3CCC(C2)N3c2ccc(C#N)cn2)c1 [Example 160, 6-(3-(4,4-difluoro-4-(5-methoxypyridin-3-yl)butanoyl)-3,8-diazabicyclo[3.2.1]octan-8-yl)nicotinonitrile]",> 8.00
9,"N#Cc1ccc(N2C3CCC2CN(C(=O)CCNC(CO)c2ccc(F)cc2)C3)nc1 [Example 131, 6-((3-(3-(((S)1-(4-fluorophenyl)-2-hydroxyethyl)amino)propanoyl)-3,8-diazabicyclo[3.2.1]octan-8-yl)nicotinonitrile]",5.00 to 6.00
10,"N#Cc1ccc(N2C3CCC2CN(C(=O)COC2(c4ccc(F)cc4)COC2)C3)nc1 [Example 240, (3-(2-((3-(4-fluorophenyl)oxetan-3-yl)oxy)acetyl)-3,8-diazabicyclo[3.2.1]octan-8-yl)nicotinonitrile]",6.00 to 7.00
11,"COc1cccc(C2(OCC(=O)N3CC4CCC(C3)N4c3ccc(C#N)cn3)COC2)c1 [Example 242, (3-(2-((3-(3-methoxyphenyl)oxetan-3-yl)oxy)acetyl)-3,8-diazabicyclo[3.2.1]octan-8-yl)nicotinonitrile]",7.00 to 8.00
12,"N#Cc1ccc(N2[C@@H]3CC[C@H]2CN(C(=O)CCNC2(c4ccc(F)cn4)CC2)C3)nc1 [Example 29, 6-(3-(3-((1-(5-fluoropyridin-2-yl)cyclopropyl)amino)propanoyl)-3,8-diazabicyclo[3.2.1]octan-8-yl)nicotinonitrile]",5.00 to 6.00
13,"N#Cc1ccc(C2(NCC(=O)N3CC4CCC(C3)N4c3ccc(C#N)cn3)CC2)cc1 [Example 100, 6-(3-((1-(4-cyanoplKml)cyclopropyl)glycyl)-3,8-diazabicyclo[3.2.1]oclaii-8-yl)mcotiiiomtrile]",< 6.00
14,"Cc1nn(C)c(C)c1C(C)OCC(=O)N1CC2CCC(C1)N2c1ccc(C#N)cn1 (racemic) [Example 198, 6-(3-(2-(1-(1,3,5-trimethyl-1H-pyrazol-4-yl)ethoxy)acetyl)-3,8-diazabicyclo[3.2.1]octan-8-yl)nicotinonitrile]",7.00 to 8.00
15,"N#Cc1ccc(N2C3CCC2CN(C(=O)COC2(c4ccncc4)CC2)C3)nc1 [Example 227, 6-(3-(2-(1-(pyridin-4-yl)cyclopropoxy)acetyl)-3,8-diazabicyclo[3.2.1]octan-8-yl)nicotinonitrile]",6.00 to 7.00
16,"COc1cccnc1C(F)(F)/C=C/C(=O)N1C[C@H]2CC[C@@H](C1)N2c1ccc(C#N)cn1 [Example 144, 6-(3-((E)-4,4-difluoro-4-(3-methoxypyridin-2-yl)but-2-enoyl)-3,8-diazabicyclo[3.2.1]octan-8-yl)nicotinonitrile]",> 8.00

# Reference: US12565501B2, “Muscarinic acetylcholine M1 receptor antagonists” (Contineum Therapeutics, Inc., priority 2019, dated 2026)
